Patent US20220296595A1, “CDK INHIBITORS” (QILU REGOR THERAPEUTICS INC., priority 2019, published 2022)

How the values were obtained:
CDK4/CyclinD1 = biological target: T1, CDK4/CyclinD1 (Homo sapiens, UniProt P11802); assay: Assay for inhibition of CDK4/CyclinD1 (Caliper microfluidic kinase assay); format: biochemical; conditions: CDK4/CyclinD1, 200 μM ATP
T1 construct: purchased Thermofisher PR8064A
How it was run: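 IC50 was obtained by 4-parameter sigmoidal fitting after 1 nM CDK4/CyclinD1, 200 μM ATP and 1 μM FL-34 substrate reacted for 3 h at room temperature (pH 7.5 HEPES, 10 mM MgCl2). After EDTA quench, substrate and product were separated and detected on a Caliper microfluidic chip.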

CDK6/CyclinD3 = biological target: T2, CDK6/CyclinD3 (Homo sapiens, UniProt Q00534); assay: Assay for inhibition of CDK6/CyclinD3 (Caliper microfluidic kinase assay); format: biochemical; conditions: CDK6/CyclinD3, 300 μM ATP
T2 construct: purchased Carna 04-107
T2 sequence (Q00534 whole entry): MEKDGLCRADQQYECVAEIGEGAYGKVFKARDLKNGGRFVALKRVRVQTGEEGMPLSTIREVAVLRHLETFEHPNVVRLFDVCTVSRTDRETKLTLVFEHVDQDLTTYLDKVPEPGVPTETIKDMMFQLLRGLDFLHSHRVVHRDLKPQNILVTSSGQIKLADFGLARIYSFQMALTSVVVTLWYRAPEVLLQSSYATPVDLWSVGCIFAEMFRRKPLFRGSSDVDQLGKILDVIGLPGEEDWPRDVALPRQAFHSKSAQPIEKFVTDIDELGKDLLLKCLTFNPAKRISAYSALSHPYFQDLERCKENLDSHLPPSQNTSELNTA
T2 sequence (P30281 whole entry partner): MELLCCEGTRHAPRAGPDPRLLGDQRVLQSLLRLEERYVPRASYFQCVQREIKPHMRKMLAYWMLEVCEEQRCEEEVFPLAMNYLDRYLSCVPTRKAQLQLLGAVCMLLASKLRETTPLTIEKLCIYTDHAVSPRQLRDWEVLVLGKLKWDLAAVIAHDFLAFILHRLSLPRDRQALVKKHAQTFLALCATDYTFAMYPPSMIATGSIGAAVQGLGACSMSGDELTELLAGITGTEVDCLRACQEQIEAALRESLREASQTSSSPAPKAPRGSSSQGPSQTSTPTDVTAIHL
How it was run: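 IC50s came from four-parameter dose-response fits of microfluidic substrate/product separation data. Reactions held 2 nM CDK6/CyclinD3, 300 μM ATP and 1 μM 5-FAM peptide FL-34 in pH 7.5 HEPES/MgCl2 buffer, ran 3 hours at room temperature, then were quenched with EDTA.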

CDK2/CyclinE1 = biological target: T3, CDK2/CyclinE1 (Homo sapiens, UniProt P24941); assay: Assay for inhibition of CDK2/CyclinE1 (Caliper microfluidic kinase assay); format: biochemical; conditions: CDK2/CyclinE1, 100 μM ATP; read-out: CDK2 IC50
T3 construct: purchased SignalChem C29-18G
How it was run: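 IC50 came from 4-parameter fits of substrate-to-product conversion, separated on a Caliper chip after an EDTA stop. Reactions ran 3 hours at room temperature with 100 μM ATP, 5 μM fluorescent FL-18 peptide and 5 nM enzyme in 100 mM HEPES pH 7.5, 10 mM MgCl2.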

T47D breast cancer cells = assay: Anti-proliferation assay in T47D cell (Cyquant, day 6); format: cell-based, human; conditions: Homo sapiens, T47D, anti-proliferation, T47D cells; read-out: T47D IC50
How it was run: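 A ten-point, 3-fold compound series (10 μM down to 0.51 nM) was applied to overnight-settled cells in 10% FBS RPMI 1640, and DNA content was read by CyQuant fluorescence 6 days later. An untreated plate read before dosing served as baseline for subtraction before IC50 fitting.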

[1] = tested on: phosphorylation of Retinoblastoma Protein (pRb Ser807/811 or Ser780) in T47D cells; assay: Inhibition of phosphorylation of retinoblastoma protein (pRb) in T47D cell (ELISA); format: cell-based, human; conditions: Homo sapiens, T47D, read-out: Phospho T47D Ser807 IC50, pRb Ser807 phosphorylation, T47D cells
How it was run: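 T47D cells in RPMI 1640 + 10% FBS, adhered overnight, then treated 24 h with 3-fold compound titrations (top concentration […]). Lysates assayed by sandwich ELISA for pRb Ser807/811 or Ser780 with HRP/TMB detection. IC50 from 4-parameter sigmoidal fit.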

T1 sequence (P11802 whole entry): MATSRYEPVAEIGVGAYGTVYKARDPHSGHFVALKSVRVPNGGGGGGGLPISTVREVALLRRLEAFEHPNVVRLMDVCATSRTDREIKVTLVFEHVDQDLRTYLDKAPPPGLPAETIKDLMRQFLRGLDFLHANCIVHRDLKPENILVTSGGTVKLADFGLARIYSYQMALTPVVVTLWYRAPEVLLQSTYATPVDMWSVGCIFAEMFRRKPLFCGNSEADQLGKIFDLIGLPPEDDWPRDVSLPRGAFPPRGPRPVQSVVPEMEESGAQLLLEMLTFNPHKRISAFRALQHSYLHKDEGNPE
T1 sequence (P24385 whole entry partner): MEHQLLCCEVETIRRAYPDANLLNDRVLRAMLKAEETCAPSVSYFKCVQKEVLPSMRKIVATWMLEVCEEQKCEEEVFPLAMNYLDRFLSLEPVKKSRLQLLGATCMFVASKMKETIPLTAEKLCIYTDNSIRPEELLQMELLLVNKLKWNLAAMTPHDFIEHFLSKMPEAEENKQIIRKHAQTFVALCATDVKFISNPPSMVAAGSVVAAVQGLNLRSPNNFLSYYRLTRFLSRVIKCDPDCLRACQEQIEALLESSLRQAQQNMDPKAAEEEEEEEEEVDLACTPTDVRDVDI

Row | SMILES | IC50 (CDK4/CyclinD1) [nM] | IC50 (CDK6/CyclinD3) [nM] | IC50 (CDK2/CyclinE1) [nM] | IC50 (T47D breast cancer cells) [nM] | IC50 [1] [nM]
1 | CCN(CC)C1CCN(c2ccc(Nc3nccc(-c4ccn5ncc(C(C)C)c5c4)n3)nc2)C(=O)C1 (stereo not shown) [compound 176] | < 10 | 10 to 100 | 10 to 100 | < 100 | < 100
2 | CC(C)c1cnn2ccc(-c3ccnc(Nc4ccc(N5CCC=CC5=O)cn4)n3)cc12 [compound 184] | < 10 | 10 to 100 | 10 to 100 | < 100 | < 100
3 | CC(C)c1cnn2ccc(-c3ccnc(Nc4ccc(C(=O)N5CCC(NC6CC6)C5)cc4)n3)cc12 (stereo not shown) [compound 191] | < 10 | 10 to 100 | < 10 | < 100 | < 100
4 | Cc1nn2ccc(-c3ccnc(Nc4ccc(N5CCNCC5=O)cn4)n3)cc2c1C(C)C [compound 192] | < 10 | 10 to 100 | 10 to 100 | < 100 | < 100
5 | CC1CC(=O)N(c2ccc(Nc3ncc(F)c(-c4ccn5ncc(C(C)C)c5c4)n3)nc2)CCN1 (stereo not shown) [compound 193] | < 10 | 10 to 100 | 10 to 100 | < 100 | < 100
6 | CC1CN(c2ccc(Nc3ncc(F)c(-c4ccn5ncc(C(C)C)c5c4)n3)nc2)C(=O)CCN1 (stereo not shown) [compound 194] | < 10 | 10 to 100 | 10 to 100 | 100 to 500 | < 100
7 | O=C1CCNCCN1c1ccc(Nc2ncc(F)c(-c3ccn4ncc(C5CC5)c4c3)n2)nc1 [compound 195] | < 10 | 10 to 100 | 100 to 1000 | < 100 | < 100
8 | CC(C)c1cnn2ccc(-c3ccnc(Nc4ccc(N5CCC(C)(N)CC5=O)cn4)n3)cc12 (stereo not shown) [compound 196] | < 10 | 10 to 100 | < 10 | < 100 | < 100
9 | CC(C)(C)c1cnn2ccc(-c3ccnc(Nc4ccc(N5CCNCCC5=O)cn4)n3)cc12 [compound 197] | < 10 | 10 to 100 | 10 to 100 | < 100 | < 100
10 | CC(C)c1cnn2ccc(-c3nc(Nc4ccc(N5C(=O)CC6CC5CN6)cn4)ncc3F)cc12 (stereo not shown) [compound 198] | < 10 | 10 to 100 | 10 to 100 | < 100 | < 100
11 | CC(C)c1cnn2ccc(-c3nc(Nc4ccc(N5CC6CCC(CC5=O)N6)cn4)ncc3F)cc12 (stereo not shown) [compound 199] | < 10 | < 10 | 10 to 100 | < 100 | < 100
12 | CC(C)c1cnn2ccc(-c3ccnc(Nc4ccc(N5CCC(N6CCNCC6)CC5=O)cn4)n3)cc12 (stereo not shown) [compound 200] | < 10 | 10 to 100 | 10 to 100 | < 100 | < 100
13 | CC(C)c1cnn2ccc(-c3ccnc(Nc4ccc(N5CCC(C)(N)CC5=O)cc4)n3)cc12 (stereo not shown) [compound 202] | < 10 | < 10 | < 10 | < 100 | < 100
14 | CC(C)c1cnn2ccc(-c3ccnc(Nc4ccc(N5CCC(N)CC5=O)cn4)n3)cc12 (stereo not shown) [compound 203] | < 10 | 10 to 100 | < 10 | < 100 | < 100
15 | CC(C)c1cnn2ccc(-c3ccnc(Nc4ccc(N5CCCC(N)C5=O)cn4)n3)cc12 (stereo not shown) [compound 207] | < 10 | < 10 | 10 to 100 | < 100 | < 100
16 | CC(C)c1cnn2ccc(-c3ccnc(Nc4ccc(N5CCCC(N)C5=O)cc4)n3)cc12 (stereo not shown) [compound 214] | < 10 | < 10 | < 10 | < 100 | < 100
17 | CC(C)c1cnn2ccc(-c3ccnc(Nc4ccc(N5CCN(C6COC6)CC5=O)cn4)n3)cc12 [compound 234] | < 10 | 10 to 100 | 10 to 100 | < 100 | < 100
